In patent US7176234B2, “Derivatives of gambogic acid and analogs as activators of caspases and inducers of apoptosis” (priority 2002, dated 2007):
Where two headings read alike, the source gives them in different places.

Columns and labels:
[1] = test system: T-47D; test: Caspase cascade activation / apoptosis induction assay (N-(Ac-DEVD)-N'-ethoxycarbonyl-R110 substrate) in T-47D cells; assay type: cell-based, Human; settings: for Caspase activity (Ratio): ratio of net RFU to control
Procedure: (§1) Human breast cancer cell lines T-47D and ZR-75-1 were grown according to media component mixtures designated by American Type Culture Collection+10% FCS (Invitrogen Corporation), in a 5% CO2-95% humidity incubator at 37° C. T-47D and ZR-75-1 cells were maintained at a cell density between 30 and 80% confluency and for HL-60 at a cell density of 0.1 to 0.6×10^6 cells/ml. Cells were harvested at 600×g and resuspended at 0.65×10^6 cells/mL into appropriate media+10% FCS. An aliquot of 45 μl of cells was added to a well of a 96-well microtiter plate containing 5 μl of a 10% DMSO in RPMI-1640 media solution containing 1.6 to 100 μM of gambogic acid or other test compound (0.16 to 10 μM final). An aliquot of 45 μl of cells was added to a well of a 96-well microtiter plate containing […] of a 10% DMSO in RPMI-1640 media solution without test compound as the control sample. The samples were mixed by agitation and then incubated at 37° C. for 24 h in a 5% CO2-95% humidity incubator. After incubation, the samples were removed from the incubator and 50 μl of a solution containing 20 μM of N-(Ac-DEVD)-N′-ethoxycarbonyl-R110 fluorogenic substrate SEQ ID NO:1 (Cytovia, Inc.; U.S. Pat. No. 6,335,429), 20% sucrose (Sigma), 20 mM DTT (Sigma), 200 mM NaCl (Sigma), 40 mM Na PIPES buffer pH 7.2 (Sigma), and 500 μg/mL lysolecithin (Calbiochem) was added. The samples were mixed by agitation and incubated at room temperature. Using a fluorescent plate reader (Model 1420 Wallac Instruments), an initial reading (T=0) was made approximately 1–2 min after addition of the substrate solution, employing excitation at 485 nm and emission at 530 nm, to determine the background fluorescence of the control sample. After approximately 3 h of incubation, the samples were read for fluorescence as above (T=3 h).
(§2) The Relative Fluorescence Unit values (RFU) were used to calculate the sample readings as follows: RFU(T=3h)−Control RFU(T=0)=Net RFU(T=3h)
(§3) The activity of caspase cascade activation was determined by the ratio of the net RFU value for derivatives of gambogic acid to that of control samples. The EC50 (nM) was determined by a sigmoidal dose-response calculation (Prism 2.0, GraphPad Software Inc.).
Methyl 9,10-dihydro-10-morpholinyl-gambogate and gambogic acid were assayed as described in Example 28 in T47D cells. The samples of cells and testing compound were incubated for 5 h and 24 h, respectively. Table II summarizes the caspase activity (Ratio) and potency (EC50) of methyl 9,10-dihydro-10-morpholinyl-gambogate (compound B) in the 5 h and 24 h assays, in comparison with that of gambogic acid (compound A).

[2] = test system: ZR-75-1; test: Caspase cascade activation / apoptosis induction assay (N-(Ac-DEVD)-N'-ethoxycarbonyl-R110 substrate) in ZR-75-1 cells; assay type: cell-based, Human; settings: ZR-75-1, 24 h incubation; for Caspase activity (Ratio): ratio of net RFU to control; for EC50: read-out: Caspase potency EC50
Procedure: as §1, §2, §3

[3] = test system: KB cell line; settings: cited from earlier work
[4] = test system: KB-V1 cell line; settings: cited from earlier work
[5] = Conversion of methyl 9,10-dihydro-10-morpholinyl-gambogate to methyl gambogate in biological media (HPLC); assay type: physicochemical; settings: solution of compound B 5 mg/ml in 87.5% RPMI 1640, 37° C., HPLC peak area
Procedure: A solution of methyl 9,10-dihydro-10-morpholinyl-gambogate in 87.5% RPMI 1640 biological Media (Invitrogen Corporation, Carlsbad, Calif.), 5.6% EtOH, 1.3% DMSO, and 5.6% Cremophor EL at a concentration of 5 mg/ml was stored at 37° C. The amount of methyl 9,10-dihydro-10-morpholinyl-gambogate (compound B) and methyl gambogate (compound C) was measured by integration of the peak area. The HPLC was run in the Beckman System Gold with 32 Karate software under the following conditions: […]

[6] = test system: ICR (CD-1) mice; test: Maximum tolerated dose (MTD) in mice, I.V.; assay type: in vivo; settings: mice
Procedure: For acute toxicity studies, 3 ICR (CD-1) mice were used per each dose group. Animals were given a single bolus injection in the tail vein with approximately 100 μl volume of compound formulation or vehicle formulation. Mice body weights were measured daily along with daily observation for clinical abnormalities. The maximum tolerated dose (MTD) was defined as the dose that results in less than 10% decrease in body weight with no clinical abnormalities.
For multiple dose studies, the animals were dosed once a day for 5 days.
Table IV summarizes the MTD of gambogic acid and methyl 9,10-dihydro-10-morpholinyl-gambogate in mice by I.V. administration.

[7] = Pharmacokinetic studies in mice (plasma, LC/MS/MS); assay type: in vivo, ICR mice
Procedure: ICR mice were administered a single dose of drug into the tail vein. At each time point, 3 animals were sacrificed and the blood was withdrawn by cardiac puncture. The blood cells were spun down and the plasma was collected and frozen immediately in liquid nitrogen. For sample processing, the plasma was thawed and extraction solvent was added along with an internal standard to assess recoveries. The samples were vortexed followed by centrifugation, and the extraction solution was collected and subjected to LC/MS/MS analysis to identify and quantitate the compound plasma concentration. The levels of compound from the three animals at each time point were averaged and the pharmacokinetic parameters calculated using WinNonLin program. Table V summarized the major PK parameters.

[8] = test system: ZR75-1 (Breast cancer); test: Efficacy in human tumor xenograft mouse model ZR75-1; assay type: in vivo, human tumor in CD1 nu/nu mice; settings: ZR75-1 xenograft, 5 mg/kg, every other day, I.V.
Procedure: (§4) CD1 nu/nu mice were used. Viable tumor bits of transplantable human xenografts approximately 50 mg of trocar or cultured human tumor cells (nx106 cells?) were implanted subcutaneously into the flank region of mice and tumors were allowed to grow to the desired average size of 100 mg. The mice were measured for tumor size and those within the accepted tumor range of 75–125 mg, were randomized into control and treatment groups with 8–9 mice per group. Treatment was initiated on these groups which have an average starting tumor size of 100 mg. The control group was injected with the vehicle used to dissolve the drug. Injections were I.V. via the tail vein. Tumor measurements were taken every other day along with weights of animals and all animals were observed daily for survival. Tumor size was calculated by the equation of: Tumor volume=(length×width^2)/2.

[9] = test system: human tumor xenograft models; test: Efficacy studies in human tumor xenograft models (text summary, model not named); assay type: in vivo, human tumor in nu/nu mice
Procedure: as §4

[10] = test system: HeLa cells; settings: cited from earlier work
[11] = test system: HEL cells; settings: cited from earlier work
[12] = T-47D, 24 h incubation, read-out: Caspase potency EC50

CC(C)=CCCC1(C)C=Cc2c(O)c3c(c(CC=C(C)C)c2O1)OC12C(C3=O)C(NCCN3CCOCC3)C3CC1C(C)(C)OC2(C/C=C(/C)C(=O)N1CCN(C)CC1)C3=O (stereo not shown) [Example 6, 9,10-Dihydro-10-[2-(morpholinyl)ethylamino]-gambogyl (N-Methylpiperazine)]
Caspase activity (Ratio) ([1]; T-47D, 24 h incubation): 17
EC50 [1, 12]: 714 nM
Caspase activity (Ratio) [2]: 4.1
EC50 [2]: 1450 nM

CC(C)=CCCC1(C)C=Cc2c(O)c3c(c(CC=C(C)C)c2O1)OC12C(C3=O)C(N3CCCCC3)C3CC1C(C)(C)OC2(C/C=C(/C)C(=O)N1CCN(C)CC1)C3=O (stereo not shown) [Example 5, 9,10-Dihydro-10-piperidinyl-gambogyl (N-Methylpiperazine)]
Caspase activity (Ratio) ([1]; T-47D, 24 h incubation): 23
EC50 [1, 12]: 846 nM
Caspase activity (Ratio) [2]: 5.3
EC50 [2]: 2340 nM

CC(C)=CCc1c2c(c(O)c3c1OC14C(=CC5CC1C(C)(C)OC4(C/C=C(\C)CO)C5=O)C3=O)C=CC(C)(C)O2 (stereo not shown) [isomorellinol]
Cytotoxicity ([3]; KB cell line): cytotoxic
Cytotoxicity ([4]; KB-V1 cell line): cytotoxic

COC(=O)/C(C)=C\C[C@@]12OC(C)(C)[C@@H]3C[C@@H](C=C4C(=O)c5c(O)c6c(c(CC=C(C)C)c5O[C@]431)O[C@](C)(CCC=C(C)C)C=C6)C2=O [C, Methyl gambogate]
Amount in biological media, 0 h ([5]; 0 h): 4
Amount in biological media, 2 h ([5]; 2 h): 3
Amount in biological media, 18 h ([5]; 18 h): 26
Amount in biological media, 48 h ([5]; 48 h): 48
Amount in biological media, 90 h ([5]; 90 h): 64

CC(C)=CCCC1(C)C=Cc2c(O)c3c(c(CC=C(C)C)c2O1)OC12C(C3=O)C(OCCN(C)C)C3CC1C(C)(C)OC2(C/C=C(/C)C(=O)N1CCN(C)CC1)C3=O (stereo not shown) [Example 9, 9,10-Dihydro-10-(2-dimethylaminoethoxy)-gambogyl (N-Methylpiperazine)]
Caspase activity (Ratio) ([1]; T-47D, 24 h incubation): 15
EC50 [1, 12]: 1960 nM
Caspase activity (Ratio) [2]: 16
EC50 [2]: 5210 nM

CC(C)=CCCC1(C)C=Cc2c(O)c3c(c(CC=C(C)C)c2O1)OC12C(C3=O)C(N3CCN(c4ccccn4)CC3)C3CC1C(C)(C)OC2(C/C=C(/C)C(=O)N1CCN(C)CC1)C3=O (stereo not shown) [Example 7, 9,10-Dihydro-10-[4-(2-pyridyl)piperazinyl]-gambogyl (N-Methylpiperazine)]
Caspase activity (Ratio) ([1]; T-47D, 24 h incubation): 2.2
EC50 [1, 12]: 598 nM
Caspase activity (Ratio) [2]: 1.6
EC50 [2]: > 10000 nM

CC(C)=CCC[C@]1(C)C=Cc2c(O)c3c(c(CC=C(C)C)c2O1)O[C@]12C(=C[C@@H]4C[C@H]1C(C)(C)O[C@@]2(C/C=C(\C)C(=O)O)C4=O)C3=O [isogambogic acid]
Cytotoxicity [3]: cytotoxic
Cytotoxicity [4]: cytotoxic

CC(C)=CCCC1(C)C=Cc2c(O)c3c(c(CC=C(C)C)c2O1)OC12C(C3=O)C(N3CCOCC3)C3CC1C(C)(C)OC2(C/C=C(/C)C(=O)N1CCN(C)CC1)C3=O (stereo not shown) [Example 4, 9,10-Dihydro-10-morpholinyl-gambogyl (N-Methylpiperazine)]
Caspase activity (Ratio) ([1]; T-47D, 24 h incubation): 19
EC50 [1, 12]: 1340 nM
Caspase activity (Ratio) [2]: 18
EC50 [2]: 3980 nM

CC(C)=CCC[C@]1(C)C=Cc2c(O)c3c(c(CC=C(C)C)c2O1)O[C@]12C(=C[C@@H]4C[C@H]1C(C)(C)O[C@@]2(C/C=C(/C)C(=O)O)C4=O)C3=O [Compound A, Gambogic acid]
Activity in the caspase activation / apoptosis induction assay (in words), 5 h ([1]; T47D cells, 5 h assay): active
Caspase activity (Ratio), 5 h ([1]; T47D cells, 5 h assay): 29.5
EC50 ([1]; T47D cells, 5 h assay, read-out: Caspase potency EC50, 5 h): 1740 nM
Activity in the caspase activation / apoptosis induction assay (in words), 24 h ([1]; T47D cells, 24 h assay): active
Caspase activity (Ratio), 24 h ([1]; T47D cells, 24 h assay): 12.1
EC50 ([1]; T47D cells, 24 h assay, read-out: Caspase potency EC50, 24 h): 700 nM
Multiple Dose MTD ([6]; I.V., once a day, 5 doses): 5 mg/kg
Injection site toxicity ([6]; tail vein injection): evidence of injection site toxicity, such as tail edema
T1/2, Terminal half-life ([7]; mice, single I.V. dose 5 mg/kg): 4.8 h
AUC (0-inf), Area under the curve ([7]; mouse, in vivo, iv, 5 mg/kg): 2,700 ng-h/ml
CL, Clearance ([7]; mouse, in vivo, iv, 5 mg/kg): 30.7 mL/min/kg
Vss, Vol. of distribution ([7]; mouse, in vivo, iv, 5 mg/kg): 2.9 L/kg
% Tumor reduction [8]: 20%
Best efficacy, tumor growth inhibition ([9]; human tumor cells s.c. in nu/nu mice, at doses that were toxic, not statistically significant): approximately 20%
Efficacy (in words) ([9]; summary of Table VI, gambogic acid at its maximal tolerable dose): did not produce significant efficacy
Cytotoxicity [10]: cytotoxic
Cytotoxicity [11]: cytotoxic
Cytotoxicity [3]: cytotoxic
Cytotoxicity [4]: cytotoxic

CC(C)=CCCC1(C)C=Cc2c(O)c3c(c(CC=C(C)C)c2O1)OC12C(C3=O)C(N3CCOCC3)C3CC1C(C)(C)OC2(C/C=C(/C)C(=O)N1CCOCC1)C3=O (stereo not shown) [Example 10, 9,10-Dihydro-10-morpholinyl-gambogyl Morpholine]
Caspase activity (Ratio) ([1]; T-47D, 24 h incubation): 23
EC50 [1, 12]: 592 nM
Caspase activity (Ratio) [2]: 7.0
EC50 [2]: 1380 nM
